Data as given in US12677825B2, “Composition for protecting islet transplantation” (LG CHEM, LTD., priority 2020, dated 2026).

Assays:
[1] = system: islets from hIAPP+/− FVB/N mice; assay: ATP assay of islets isolated with or without Compound 1; format: cell-based, mouse; conditions: 20 μM Compound 1 during islet isolation, vs non-treated group; FIG. 1B
Experimental: (§1) Mouse islets were isolated from 10- to 12-week-old hIAPP^+/− and C57BL/6 mice as described previously. Briefly, 0.8 mg/mL of collagenase P (Roche, Indianapolis, IN, USA) in Hank's buffered saline solution (HBSS, Sigma-Aldrich, St. Louis, MO, USA) with or without 20 μM Compound 1 were infused into the common bile duct for mouse pancreas digestion. Islets were purified from the digested pancreas using a Ficoll (Biochrom, Berlin, Germany) gradient and washed several times with 1 xHBSS. Isolated islets were cultured while free-floating in 10 mL of RPMI 1640 (Gibco, Grand Island, NY, USA). The medium was supplemented with 10% heat-inactivated FBS (fetal bovine serum) at 37° C. and 5% CO2 incubation prior to the ex vivo and in vivo studies.
ATP content of islets was assayed by a luminometric method. The samples were mixed with 200 μL of a commercially available lyophilized ATP monitoring reagent containing firefly luciferase and luciferin (ATP Bioluminescence Assay KIT CLS II, Roche Diagnostics) at first reconstituted in an imidazole buffer (100 mM, pH 7.75). The emitted light was measured in a luminometer (LKB 1250 luminometer). The adenine nucleotide content in samples was determined after correction of the control (no islet or cell) and calculated by reference to ATP standards treated in the same manner as the samples.

[2] = system: STZ-induced diabetic hIAPP+/− FVB/N mice; assay: Marginal mass renal subcapsular islet transplantation, islets isolated with or without Compound 1; format: in vivo, mouse
Experimental: as §1
A marginal mass renal subcapsular islet transplantation model was used to assess the in vivo islet function of hIAPP^+/− mice. To induce diabetes, 180 mg/kg of streptozotocin (STZ, Sigma-Aldrich) was administered to 8- to 10-week-old FVB/N mice. Mice were considered to have diabetes when two consecutive blood glucose level readings were higher than 300 mg/dL. Equal amounts (400 IEQ of islets per recipient) of islets isolated from hIAPP^+/− mice were allocated to the following two groups: culture medium supplemented with 0.625% BSA (BSA group) and 0.625% BSA plus Compound 1 (BSA+Compound 1 group) to evaluate the combined effect of Compound 1 on islet mass and function during ex vivo culture. After culture for 72 hours, islets were transplanted into the renal subscapular space of diabetic hIAPP^+/− mice. The IE number was calculated using the Ricordi algorithm by classifying islets according to their diameter. After islet transplantation, non-fasting blood glucose levels were measured three times a week for the first 2 weeks and twice a week for the last 2 weeks.
At 4 weeks after transplantation, the transplantation site on the kidney of mouse were removed and embedded in paraffin. Immunohistochemical staining is briefly explained in the following. After deparaffinization, 4-μm tissue sections were stained with the polyclonal guinea pig anti-insulin antibody (1:1000, A0546, DAKO, Denmark), glucacon (1:500, ab92517, abcam, United Kingdom) and amyloid (1:2500, #44-344, Invitrogen). Stained slides were observed using an Olympus BX40 light microscope (Olympus, Japan) with […] numeric aperture and ×40/0.75 numeric aperture objectives. Photographic images were collected with a digital camera (Olympus DP50) and analyzed using the Image-Pro Plus 5.1 software.
For quantification of the DAB-labeled β-cells, all slides were imaged at 10× on a Vectra 3.0 automated quantitative pathology imaging system and analyzed using inForm software (all from Perkin-Elmer, Waltham, MA, USA). The transplanted renal tissue sections were scanned for image acquisition and then to set the transplanted tissue segmentation, a number of representative regions of transplanted islet cells and regions to be excluded from the analysis such as renal tissues were examined by learn-by-example interface. For the β-cell segmentation, a spectral library was used to identify the hematoxylin-stained nuclei and the DAB-stained cytoplasm (β-cells) within the transplanted tissue. With these training sets, the algorithm for identifying only the DAB-stained cells in the transplanted tissue was verified. All the captured 10× images were analyzed, and the DAB-stained transplanted β-cells were counted.

RINm5F cells = assay: tert-butyl hydroperoxide (tBHP) exposure of RINm5F cells; format: cell-based, rat; conditions: Compound 1 supplementation
Experimental: Islets were isolated from heterozygous human islet amyloid polypeptide transgenic (hIAPP^+/−)FVB/N mice (Jackson Laboratory, Bar Harbor, ME, USA), […] mice (Orientbio, Sungnam, Korea), and cynomolgus monkeys (Macaca fascicularis; Orientbio, Sungnam, Korea). For additional in vitro studies, rat insulinoma cells (RINm5F cells) were treated with or without Compound 1 during culture under tert-butyl hydroperoxide (tBHP) exposure or serum deprivation condition. RINm5F cells were suspended in DMEM medium (Gibco, Grand Island, NY, USA) containing 100 IU/mL penicillin and 100 μg/mL streptomycin, and cultured at 37° C. in a fully humidified 5% CO2 atmosphere. All experimental protocols in this study were approved by the Institutional Animal Care and Use Committee (IACUC) of Samsung Biomedical Research Institute.

SMILES: O=S1(=O)CCN(Cc2cc(NC3CCOCC3)c3[nH]c(-c4ccccc4)cc3c2)CC1 [Compound 1]
- levels of ATP [1]: significantly elevated
- diabetes reversal rate ([2]; islets isolated with Compound 1, vs control group, FIG. 3C): better
- proportion of insulin positive area in the grafted tissue ([2]; islets isolated with Compound 1, vs control group, FIG. 3F): greater
- glucose levels during intraperitoneal glucose tolerance test (IPGTT) ([2]; islets isolated with Compound 1, vs control group, FIGS. 3D, 3E): better
- post-transplant glucose levels ([2]; islets isolated with Compound 1, vs non-treated group, FIG. 3B): markedly lower
- glycemia after removal of the grafted kidney ([2]; islets isolated with Compound 1, FIG. 3B): regain of hyperglycemia
- cellular toxicity (LDH release) (RINm5F cells; FIG. 4A): markedly reduced
- ROS contents (RINm5F cells; FIG. 4B): markedly reduced
